Assay results as given in US20030055065A1, “Tricyclic amide and urea compounds useful for inhibition of G-protein function and for treatment of proliferative diseases” (priority 1993, published 2003).
Several values for one entry are separate records, joined by “and”; a condition that tells them apart may be missing. Equal entries are not always repeated. Where two headings read alike, the source gives them in different places.

Columns and labels:
Format in all cases: cell-based
[1] = system: Ras-CVLS processing in COS monkey kidney cells; test: COS cell assay: Ras-CVLS processing (Western blot); details: Primates, COS
Method in brief: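 COS cells electroporated with Ras-CVLS (farnesyl transferase substrate) cDNA, with drug-containing fresh medium added at 24 h and cells examined at 48 h. TCA-precipitated cellular protein was resolved by SDS gel and immunoblotted with anti-p21 Ras monoclonal and HRP anti-rat IgG to monitor Ras processing.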

[2] = system: Ras-CVLL processing in COS monkey kidney cells; test: COS cell assay: Ras-CVLL processing (geranylgeranylation); details: concentrations up to 20 μg/mL
Text: (§1) 2. Cell-Based Assay: Transient expression of val^12-Ha-Ras-CVLS and val^12-Ha-Ras-CVLL in COS monkey kidney cells: Effect of farnesyl protein transferase inhibitors on Ras processing and on disordered cell growth induced by transforming Ras.
COS monkey kidney cells were transfected by electroporation with the plasmid pSV-SPORT (Gibco/BRL) containing a cDNA insert encoding either Ras-CVLS or Ras-CVLL, leading to transient overexpression of a Ras substrate for either farnesyl protein transferase or geranylgeranyl protein transferase I, respectively (see above). […]
Membranes were blocked by incubation overnight at 4° C. in PBS containing 2.5% dried milk and 0.5% Tween-20 and then incubated with a Ras-specific monoclonal antibody, Y13-259 (Furth, M. E., et al., (1982), Monoclonal antibodies to the p21 products of the transforming gene of Harvey murine sarcome virus and of the cellular ras gene family, J. Virol. 43: 294-304), in PBS containing 1% fetal calf serum for one hour at room temperature. […] The presence of processed and unprocessed Ras-CVLS or Ras-CVLL was detected using a colorimetric peroxidase reagent (4-chloro-1-naphthol) as described by the manufacturer (Bio-Rad).

[3] = system: COS monkey kidney cells expressing val12-Ha-Ras-CVLS; test: COS cell assay: disordered cell growth / morphological changes induced by Ras-CVLS
Text: as §1
(§2) COS monkey kidney cells were transfected by electroporation with the plasmid pSV-SPORT (Gibco/BRL) containing a cDNA insert encoding either Ras-CVLS or Ras-CVLL, leading to transient overexpression of a Ras substrate for either farnesyl protein transferase or geranylgeranyl protein transferase I, respectively (see above).
(§3) Following electroporation, cells were plated into 6-well tissue culture dishes containing 1.5 ml of Dulbecco's-modified Eagle's media (GIBCO, Inc.) supplemented with 10% fetal calf serum and the appropriate farnesyl protein transferase inhibitors. After 24 hours, media was removed and fresh media containing the appropriate drugs was re-added.
(§4) 48 hours after electroporation cells were examined under the microscope to monitor disordered cell growth induced by transforming Ras. Cells expressing transforming Ras become more rounded and refractile and overgrow the monolayer, reminiscent of the transformed phenotype. […]

[4] = system: COS monkey kidney cells expressing val12-Ha-Ras-CVLL; test: COS cell assay: disordered cell growth / morphological changes induced by Ras-CVLL; details: 20 μg/mL
Text: as §1, §2, §3, §4

[5] = system: T24-BAG4 human bladder carcinoma cells expressing an activated H-ras gene; test: Cell Mat Assay: tumor cell colony inhibition (tIC50); details: Homo sapiens, inhibition of tumor cell growth
Method in brief: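 Serial compound dilutions added 24 h after planting T24-BAG4 cells onto a mat of normal cells, then 14 d colony growth; monolayers glutaraldehyde-fixed and tumor cells X-Gal stained. tIC50 and mIC50 from microscope counts of colonies, cells per colony and mat cell density.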

IC50 [5]: 3.1 µM
SMILES: O=C(Cc1ccncc1)N1CCC(=C2c3ccc(Cl)cc3CCc3cccnc32)CC1 [Example 1, 1-(4-pyridylacetyl)-4-(8-chloro-5,6-dihydro-11H-benzo[5,6]cyclohepta[1,2-b]pyridin-11-ylidene)piperidine]
IC50 ([1]; COS cells, read-out: Inhibition of Ras Processing IC50): 1 µM | IC50 ([1]; Ras-transfected COS cells, read-out: Ras-CVLS processing IC50): 1 µM and 0.44 µg/mL | geranylgeranylation of Ras-CVLL [2]: did not block | morphological changes induced by Ras-CVLS ([3]; at 0.2 or 0.5 μg/mL): little effect | morphological changes induced by Ras-CVLS ([3]; concentration range of 2 to 20 μg/mL): inhibited the morphological changes induced by Ras-CVLS in a dose-dependent manner | morphological changes induced by Ras-CVLL [4]: did not prevent the morphological changes
